Patent US20040024024A1, “Aromatic sulfone hydroxamates and their use as protease inhibitors” (priority 2001, published 2004)
pIC50: −log10 of the molar value. Counter-ions that a name gives are not always drawn.

How the values were obtained:
Experiment in all cases: In vitro MMP inhibition, IC50 determination (fluorogenic substrate I)
Assay type in all cases: biochemical
[1] = target: T1, Human recombinant MMP-1 (Homo sapiens, UniProt P03956)
T1 construct: made in house; host or cells: MMP-1-transfected HT-1080 cells (spent media)
T1 sequence (P03956 100-469): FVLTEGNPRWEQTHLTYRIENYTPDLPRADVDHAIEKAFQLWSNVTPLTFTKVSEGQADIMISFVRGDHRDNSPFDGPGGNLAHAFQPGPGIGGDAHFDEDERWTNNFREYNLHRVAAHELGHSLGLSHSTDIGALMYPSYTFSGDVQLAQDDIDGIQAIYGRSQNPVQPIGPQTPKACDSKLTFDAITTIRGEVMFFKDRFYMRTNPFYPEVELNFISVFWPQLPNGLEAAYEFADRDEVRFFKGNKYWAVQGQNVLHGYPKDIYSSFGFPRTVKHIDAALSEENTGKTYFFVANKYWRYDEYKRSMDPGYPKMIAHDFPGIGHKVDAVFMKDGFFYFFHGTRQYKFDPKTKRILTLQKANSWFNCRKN
Method in brief: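 Inhibitor dilutions were made in 100 mM Tris-HCl/100 mM NaCl/10 mM CaCl2 buffer, pH 7.5, and incubated at room temperature with activated proenzyme (from transfected HT-1080 media; APMA or trypsin) and 4 μM quenched methoxycoumarin peptide substrate. Loss of 415 nm fluorescence (328 nm excitation) against concentration gave IC50.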

[2] = target: T2, Human recombinant MMP-2 (Homo sapiens, UniProt P08253)
T2 construct: made in house; host or cells: MMP-2-transfected p2AHT2 cells
T2 sequence (P08253 110-660): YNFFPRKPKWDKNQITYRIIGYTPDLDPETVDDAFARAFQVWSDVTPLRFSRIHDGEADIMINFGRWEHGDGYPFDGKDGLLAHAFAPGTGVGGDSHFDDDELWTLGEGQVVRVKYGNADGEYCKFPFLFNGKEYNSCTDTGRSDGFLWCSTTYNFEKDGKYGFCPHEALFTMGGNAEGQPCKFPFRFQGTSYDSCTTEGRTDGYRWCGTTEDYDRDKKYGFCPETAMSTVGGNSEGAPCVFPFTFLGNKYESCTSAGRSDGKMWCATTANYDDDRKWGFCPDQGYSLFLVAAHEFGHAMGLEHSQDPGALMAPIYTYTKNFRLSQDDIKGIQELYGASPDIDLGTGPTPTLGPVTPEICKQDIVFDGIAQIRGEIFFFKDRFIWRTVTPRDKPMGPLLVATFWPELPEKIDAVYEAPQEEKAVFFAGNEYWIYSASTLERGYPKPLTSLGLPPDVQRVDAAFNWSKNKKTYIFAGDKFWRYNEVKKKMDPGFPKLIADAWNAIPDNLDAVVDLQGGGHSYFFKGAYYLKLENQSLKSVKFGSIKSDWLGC
Method in brief: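 IC50 was derived from the concentration-dependent fall in fluorescence (ex 328, em 415 nm) on Gly-Leu cleavage of 4 μM MCA/Dpa-quenched substrate I. Assays ran at room temperature in pH 7.5 Tris/NaCl/CaCl2/Brij buffer with MMP-2 activated by trypsin or APMA; inhibitors were diluted from 1% DMSO stocks.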

[3] = target: T3, Human recombinant MMP-9 (Homo sapiens, UniProt P14780)
T3 construct: made in house; host or cells: MMP-9-transfected HT1080 cells (spent media)
T3 sequence (P14780 107-707 limits assumed): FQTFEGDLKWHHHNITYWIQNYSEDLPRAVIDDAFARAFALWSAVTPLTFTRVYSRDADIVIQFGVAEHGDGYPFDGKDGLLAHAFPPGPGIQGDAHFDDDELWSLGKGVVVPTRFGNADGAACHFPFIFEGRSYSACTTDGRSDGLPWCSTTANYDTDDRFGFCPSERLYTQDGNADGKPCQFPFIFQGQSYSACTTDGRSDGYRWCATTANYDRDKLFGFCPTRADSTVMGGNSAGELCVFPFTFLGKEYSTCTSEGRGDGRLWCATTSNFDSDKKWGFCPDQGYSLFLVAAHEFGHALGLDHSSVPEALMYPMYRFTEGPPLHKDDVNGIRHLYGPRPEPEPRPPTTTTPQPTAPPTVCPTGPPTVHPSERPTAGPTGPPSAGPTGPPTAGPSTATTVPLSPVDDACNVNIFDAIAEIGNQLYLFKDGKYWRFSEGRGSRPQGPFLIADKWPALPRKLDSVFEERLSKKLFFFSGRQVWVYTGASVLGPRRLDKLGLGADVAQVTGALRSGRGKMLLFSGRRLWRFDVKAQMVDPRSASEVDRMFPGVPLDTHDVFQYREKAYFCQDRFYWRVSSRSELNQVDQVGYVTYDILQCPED
Method in brief: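 Reduction in fluorescence (328 nm excitation, 415 nm emission) from cleavage of 4 μM quenched peptide substrate I, measured at room temperature against inhibitor concentration, gave IC50. Enzyme: trypsin- or APMA-activated MMP-9 purified from transfected HT1080 medium; buffer 100 mM Tris, 100 mM NaCl, 10 mM CaCl2, pH 7.5.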

[4] = substrate (I) 4 μM, room temperature, values not in parenthesis

Structure (SMILES)	pIC50 [1, 4]	pIC50 [2, 4]	pIC50 [3, 4]	pIC50 ([1]; value outside parenthesis)	pIC50 ([2]; value outside parenthesis)	pIC50 ([3]; value outside parenthesis)
O=C(NO)C1(S(=O)(=O)c2ccc(OCCCc3nc(-c4ccc(OC(F)(F)F)cc4)no3)cc2)CCOCC1 [Example 31, tetrahydro-N-hydroxy-4-[[4-[3-[3[4-(trifluoromethoxy)phenyl]-1,2,4-oxadiazol-5-yl]propoxy]phenyl]sulfonyl]-2H-pyran-4-carboxamide]	< 5.00	6.46	5.25	–	–	–
O=C(NO)C1(S(=O)(=O)c2ccc(OCCCc3cccc(-c4ccc(F)cc4)c3)cc2)CCOCC1 [Example 39]	–	5.89	–	–	–	–
O=C(NO)C1(S(=O)(=O)c2ccc(OCCc3cccc(-c4ccccn4)c3)cc2)CCOCC1 [Example 40]	< 5.00	6.95	6.38	–	–	–
CCN1CCC(C(=O)NO)(S(=O)(=O)c2ccc(OCCCc3nc(-c4ccc(OC(F)(F)F)cc4)no3)cc2)CC1 [Example 41, 1-ethyl-N-hydroxy 4-{[4-(3-{3-[4-(trifluoromethoxy)phenyl]-1,2,4-oxadiazol-5-yl}propoxy)phenyl]sulfonyl}piperidine-4-carboxamide Hydrochloride]	< 5.00	6.45	5.80	–	–	–
COCCN1CCC(C(=O)NO)(S(=O)(=O)c2ccc(OCCCc3nc(-c4ccc(OC(F)(F)F)cc4)no3)cc2)CC1 [Example 42]	< 5.00	7.00	6.42	–	–	–
CCN1CCC(C(=O)NO)(S(=O)(=O)c2ccc(OCCCc3cccc(-c4ccccc4)c3)cc2)CC1 [Example 46]	< 5.00	6.49	5.71	–	–	–
COCCN1CCC(C(=O)NO)(S(=O)(=O)c2ccc(OCCCc3cc(-c4ccc(F)cc4F)cs3)cc2)CC1 [Example 47, 4-[(4-{3-[4-(2,4-difluorophenyl)thien-2-l]propoxy}phenyl)sulfonyl]-N-hydroxy-1-(2-methoxyethyl)piperidine-4-carboxamide Hydrochloride]	–	7.74	–	–	–	–
COCCN1CCC(C(=O)NO)(S(=O)(=O)c2ccc(OCCCn3nnc(-c4ccc(OC(F)(F)F)cc4)n3)cc2)CC1 [Example 48]	< 5.00	6.98	5.35	–	–	–
O=C(NO)C1(S(=O)(=O)c2ccc(OCCCn3nnc(-c4ccc(OC(F)(F)F)cc4)n3)cc2)CCN(C2CC2)CC1 [Example 49]	< 5.00	6.56	5.39	–	–	–
O=C(NO)C1(S(=O)(=O)c2ccc(OCCCc3nc(-c4ccc(OC(F)(F)F)cc4)no3)cc2)CCN(C2CC2)CC1 [Example 51, 1-cyclopropyl-N-hydroxy-4-{[4-(3-{3-[4-(trifluoromethoxy)phenyl]-1,2,4-oxadiazol-5-yl}propoxy)phenyl]sulfonyl}piperidine-4-carboxamide Hydrochloride]	< 5.00	6.60	5.10	–	–	–
O=C(NO)C1(S(=O)(=O)c2ccc(OCCCn3nnc(-c4ccc(OC(F)(F)F)cc4)n3)cc2)CCN(CC2CC2)CC1 [Example 53]	< 5.00	6.42	7.12	–	–	–
NC(=O)c1cccc(OCCOc2ccc(S(=O)(=O)C3(C(=O)NO)CCOCC3)cc2)c1 [Example 54]	–	7.45	–	–	–	–
CC(C)C(=O)c1cccc(CCCOc2ccc(S(=O)(=O)C3(C(=O)NO)CCOCC3)cc2)c1 [Example 95]	–	–	–	< 5.00	7.04	5.92
O=C(NO)C1(S(=O)(=O)c2ccc(OCCCc3cccc(-c4ccco4)c3)cc2)CCOCC1 [Example 97]	–	–	–	–	6.73	–
O=C(NO)C1(S(=O)(=O)c2ccc(OCCCc3cccc(Cc4ccccc4)c3)cc2)CCOCC1 [Example 98]	–	–	–	< 5.00	6.50	5.62
O=C(NO)C1(S(=O)(=O)c2ccc(OCCc3cccc(-c4ccncc4)c3)cc2)CCOCC1 [Example 113]	–	–	–	< 5.00	7.69	5.70
O=C(NO)C1(S(=O)(=O)c2ccc(OCCc3cccc(-c4ccccc4F)c3)cc2)CCOCC1 [Example 115]	–	–	–	< 5.00	6.51	< 5.00
O=C(NO)C1(S(=O)(=O)c2ccc(OCCc3cccc(-c4ccc(F)cc4)c3)cc2)CCOCC1 [Example 123]	–	–	–	< 5.00	6.42	< 5.00
O=C(NO)C1(S(=O)(=O)c2ccc(OCCc3cccc(-c4cccnc4)c3)cc2)CCOCC1 [Example 125]	–	–	–	5.53	7.56	6.02
O=C1Nc2ccc(-c3noc(CCCOc4ccc(S(=O)(=O)C5(C(=O)NO)CCN(C6CC6)CC5)cc4)n3)cc21 [Example 142]	–	–	–	–	7.23	–
O=C(NO)C1(S(=O)(=O)c2ccc(OCCCc3cccc(-c4ccc(OC(F)(F)F)cc4)c3)cc2)CCOCC1 [Example 147]	–	–	–	–	5.32	–
